Laboratory results published in ChEMBL document CHEMBL1201862, “PubChem BioAssay data set” (2004).
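Interpolation was linear, between the two tested concentrations surrounding the appropriate level; five concentrations were tested over 48 hours in 96-well plates. GI50 is the concentration that inhibits growth by half.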 The source made the active and inactive calls. Rule as the data show it: active = GI50 up to about 1.1 µM and inactive = higher.

Tests used:
Test in all cases: growth of human tumour cells (NCI), 48 h
786-0 = system: 786-0
A498 = system: A498
A549 = system: A549
ACHN = system: ACHN
BT-549 = system: BT-549
CAKI-1 = system: CAKI-1
CCRF-CEM = system: CCRF-CEM
COLO 205 = system: COLO 205
DU-145 = system: DU-145
EKVX = system: EKVX
HCC 2998 = system: HCC 2998
HCT-116 = system: HCT-116
HCT-15 = system: HCT-15
HL-60 = system: HL-60
HOP-62 = system: HOP-62
HOP-92 = system: HOP-92
HT-29 = system: HT-29
Hs-578T = system: Hs-578T
IGROV-1 = system: IGROV-1
K562 = system: K562
KM12 = system: KM12
LOX IMVI = system: LOX IMVI
M14 = system: M14
MCF7 = system: MCF7
MDA-MB-231 = system: MDA-MB-231
MDA-MB-435 = system: MDA-MB-435
MDA-N = system: MDA-N
MOLT-4 = system: MOLT-4
Malme-3M = system: Malme-3M
NCI-H226 = system: NCI-H226
NCI-H23 = system: NCI-H23
NCI-H460 = system: NCI-H460
NCI-H522 = system: NCI-H522
NCI/ADR-RES = system: NCI/ADR-RES
OVCAR-3 = system: OVCAR-3
OVCAR-4 = system: OVCAR-4
OVCAR-5 = system: OVCAR-5
OVCAR-8 = system: OVCAR-8
PC-3 = system: PC-3
RPMI-8226 = system: RPMI-8226
RXF 393 = system: RXF 393
SF-268 = system: SF-268
SF-295 = system: SF-295
SF-539 = system: SF-539
SK-MEL-28 = system: SK-MEL-28
SK-MEL-2 = system: SK-MEL-2
SK-MEL-5 = system: SK-MEL-5
SK-OV-3 = system: SK-OV-3
SN12C = system: SN12C
SNB-19 = system: SNB-19
SNB-75 = system: SNB-75
SR = system: SR
SW-620 = system: SW-620
T47D = system: T47D
TK-10 = system: TK-10
U-251 = system: U-251
UACC-257 = system: UACC-257
UACC-62 = system: UACC-62
UO-31 = system: UO-31
DMS-114 = system: DMS-114
KM-20L2 = system: KM-20L2
SNB-78 = system: SNB-78

## CC(C)(C)c1ccc(OCCOc2ccc(C(C)(C)C)cc2NC=O)c(NC=O)c1
786-0
  GI50: 8.17 µM (inactive)
A498
  GI50: 15.4 µM (inactive)
A549
  GI50: 5.73 µM (inactive)
ACHN
  GI50: 7.78 µM (inactive)
BT-549
  GI50: 15.6 µM (inactive)
CAKI-1
  GI50: 19.4 µM (inactive)
CCRF-CEM
  GI50: 2.06 µM (inactive)
COLO 205
  GI50: 1.94 µM (inactive)
DU-145
  GI50: 17.9 µM (inactive)
EKVX
  GI50: 10.5 µM (inactive)
HCC 2998
  GI50: 5.12 µM (inactive)
HCT-116
  GI50: 6.43 µM (inactive)
HCT-15
  GI50: 3.81 µM
HL-60
  GI50: 6.04 µM (inactive)
HOP-62
  GI50: 6.92 µM (inactive)
HOP-92
  GI50: 7 µM (inactive)
HT-29
  GI50: 3.08 µM (inactive)
Hs-578T
  GI50: 12.5 µM (inactive)
IGROV-1
  GI50: 11.3 µM (inactive)
K562
  GI50: 4.14 µM (inactive)
KM12
  GI50: 3.77 µM (inactive)
LOX IMVI
  GI50: 4.5 µM (inactive)
M14
  GI50: 5.48 µM (inactive)
MCF7
  GI50: 4.7 µM (inactive)
MDA-MB-231
  GI50: 11.4 µM (inactive)
MDA-MB-435
  GI50: 6.85 µM (inactive)
MDA-N
  GI50: 9.12 µM (inactive)
MOLT-4
  GI50: 2.79 µM (inactive)
Malme-3M
  GI50: 8.79 µM (inactive)
NCI-H226
  GI50: 10.8 µM (inactive)
NCI-H23
  GI50: 7.11 µM (inactive)
NCI-H460
  GI50: 4.01 µM (inactive)
NCI-H522
  GI50: 6.7 µM (inactive)
NCI/ADR-RES
  GI50: 5.68 µM (inactive)
OVCAR-3
  GI50: 14.4 µM (inactive)
OVCAR-4
  GI50: 7.01 µM (inactive)
OVCAR-5
  GI50: 22.4 µM (inactive)
OVCAR-8
  GI50: 11.8 µM (inactive)
PC-3
  GI50: 8.71 µM (inactive)
RPMI-8226
  GI50: 2.32 µM (inactive)
RXF 393
  GI50: 8.77 µM (inactive)
SF-268
  GI50: 15.1 µM (inactive)
SF-295
  GI50: 5.5 µM (inactive)
SF-539
  GI50: 8.77 µM (inactive)
SK-MEL-28
  GI50: 12.3 µM (inactive)
SK-MEL-2
  GI50: 14.9 µM (inactive)
SK-MEL-5
  GI50: 4.13 µM (inactive)
SK-OV-3
  GI50: 20.9 µM (inactive)
SN12C
  GI50: 15 µM (inactive)
SNB-19
  GI50: 18.2 µM (inactive)
SNB-75
  GI50: 19.3 µM (inactive)
SR
  GI50: 11.7 µM (inactive)
SW-620
  GI50: 4.39 µM (inactive)
T47D
  GI50: 6.01 µM (inactive)
TK-10
  GI50: 15.1 µM (inactive)
U-251
  GI50: 6.82 µM (inactive)
UACC-257
  GI50: 5.85 µM (inactive)
UACC-62
  GI50: 12.5 µM (inactive)
UO-31
  GI50: 5.69 µM (inactive)

## N#CN1CCC2CC(=O)CCC2C1 (configuration not stated)
786-0
  GI50: > 100 µM (inactive)
A549
  GI50: > 100 µM (inactive)
ACHN
  GI50: > 100 µM (inactive)
CAKI-1
  GI50: > 100 µM (inactive)
DMS-114
  GI50: > 100 µM (inactive)
HCC 2998
  GI50: > 100 µM (inactive)
HCT-116
  GI50: > 100 µM (inactive)
HCT-15
  GI50: > 100 µM
HL-60
  GI50: > 100 µM (inactive)
HOP-92
  GI50: > 100 µM (inactive)
IGROV-1
  GI50: > 100 µM (inactive)
K562
  GI50: > 100 µM (inactive)
KM-20L2
  GI50: > 100 µM (inactive)
KM12
  GI50: > 100 µM (inactive)
LOX IMVI
  GI50: > 100 µM (inactive)
M14
  GI50: > 100 µM (inactive)
MOLT-4
  GI50: > 100 µM (inactive)
Malme-3M
  GI50: > 100 µM (inactive)
NCI-H226
  GI50: > 100 µM (inactive)
NCI-H23
  GI50: > 100 µM (inactive)
OVCAR-3
  GI50: > 100 µM (inactive)
OVCAR-4
  GI50: > 100 µM (inactive)
OVCAR-5
  GI50: > 100 µM (inactive)
RXF 393
  GI50: > 100 µM (inactive)
SF-268
  GI50: > 100 µM (inactive)
SK-MEL-28
  GI50: > 100 µM (inactive)
SK-MEL-2
  GI50: > 100 µM (inactive)
SK-MEL-5
  GI50: > 10 µM (inactive)
SK-OV-3
  GI50: > 100 µM (inactive)
SN12C
  GI50: > 100 µM (inactive)
SNB-19
  GI50: > 100 µM (inactive)
SNB-75
  GI50: > 100 µM (inactive)
SNB-78
  GI50: > 100 µM (inactive)
SR
  GI50: > 100 µM (inactive)
SW-620
  GI50: > 100 µM (inactive)
TK-10
  GI50: > 100 µM (inactive)
U-251
  GI50: > 100 µM (inactive)
UACC-62
  GI50: > 100 µM (inactive)
UO-31
  GI50: > 100 µM (inactive)

## O=C(CC(c1ccccc1)c1c(O)c2ccccc2oc1=O)c1ccccc1 (configuration not stated)
786-0
  GI50: > 100 µM (inactive)
A498
  GI50: > 61.9 µM (inactive)
A549
  GI50: 54.6 µM (inactive)
ACHN
  GI50: 98.4 µM (inactive)
BT-549
  GI50: 49.5 µM (inactive)
CAKI-1
  GI50: 21.2 µM (inactive)
CCRF-CEM
  GI50: 59.7 µM (inactive)
COLO 205
  GI50: 59.7 µM (inactive)
DU-145
  GI50: > 89.1 µM (inactive)
EKVX
  GI50: 72.1 µM (inactive)
HCC 2998
  GI50: 93.3 µM (inactive)
HCT-116
  GI50: > 84.5 µM (inactive)
HCT-15
  GI50: 78.9 µM
HL-60
  GI50: 90.2 µM (inactive)
HOP-62
  GI50: > 100 µM (inactive)
HOP-92
  GI50: > 44.3 µM (inactive)
HT-29
  GI50: > 94.8 µM (inactive)
Hs-578T
  GI50: > 69.5 µM (inactive)
IGROV-1
  GI50: > 100 µM (inactive)
K562
  GI50: 61.5 µM (inactive)
KM12
  GI50: > 100 µM (inactive)
LOX IMVI
  GI50: > 67.8 µM (inactive)
M14
  GI50: > 100 µM (inactive)
MCF7
  GI50: > 85.9 µM (inactive)
MDA-MB-231
  GI50: > 100 µM (inactive)
MDA-MB-435
  GI50: 72.6 µM (inactive)
MDA-N
  GI50: > 84.5 µM (inactive)
MOLT-4
  GI50: 84.9 µM (inactive)
Malme-3M
  GI50: > 84.9 µM (inactive)
NCI-H226
  GI50: 71.9 µM (inactive)
NCI-H23
  GI50: 53.3 µM (inactive)
NCI-H460
  GI50: 65.5 µM (inactive)
NCI-H522
  GI50: 47 µM (inactive)
NCI/ADR-RES
  GI50: 54.2 µM (inactive)
OVCAR-3
  GI50: 30.4 µM (inactive)
OVCAR-4
  GI50: 56.1 µM (inactive)
OVCAR-5
  GI50: > 100 µM (inactive)
OVCAR-8
  GI50: > 100 µM (inactive)
PC-3
  GI50: > 93.3 µM (inactive)
RPMI-8226
  GI50: 56.1 µM (inactive)
RXF 393
  GI50: > 53.1 µM (inactive)
SF-268
  GI50: > 100 µM (inactive)
SF-295
  GI50: > 76.7 µM (inactive)
SF-539
  GI50: > 100 µM (inactive)
SK-MEL-28
  GI50: 72.1 µM (inactive)
SK-MEL-2
  GI50: > 92.3 µM (inactive)
SK-MEL-5
  GI50: > 100 µM (inactive)
SK-OV-3
  GI50: 67.9 µM (inactive)
SN12C
  GI50: > 87.9 µM (inactive)
SNB-19
  GI50: > 95.7 µM (inactive)
SNB-75
  GI50: > 47.5 µM (inactive)
SR
  GI50: 44.6 µM (inactive)
SW-620
  GI50: > 100 µM (inactive)
T47D
  GI50: 58.1 µM (inactive)
TK-10
  GI50: > 100 µM (inactive)
U-251
  GI50: > 100 µM (inactive)
UACC-257
  GI50: > 83.9 µM (inactive)
UACC-62
  GI50: 38.4 µM (inactive)
UO-31
  GI50: 98.4 µM (inactive)
